Laboratory results: article PMC9278454, “Dyhidro-β-agarofurans natural and synthetic as acetylcholinesterase and COX inhibitors: interaction with the peripheral anionic site (AChE-PAS), and anti-inflammatory potentials” (Journal of Enzyme Inhibition and Medicinal Chemistry, 2022)
Read-outs that look alike come from different tables or passages of the source.

How the values were obtained:
[1] = target: T1, AChE (Electrophorus electricus, UniProt O42275); test: biochemical
[2] = target: T2, human recombinant COX-2 (Homo sapiens, UniProt P35354); test: biochemical; type: biochemical; conditions: for IC50: average of 3 independent runs, read-out: COX-2 IC50 (µM)±SE
T2 construct: purchased 560131
T2 sequence (P35354 18-604): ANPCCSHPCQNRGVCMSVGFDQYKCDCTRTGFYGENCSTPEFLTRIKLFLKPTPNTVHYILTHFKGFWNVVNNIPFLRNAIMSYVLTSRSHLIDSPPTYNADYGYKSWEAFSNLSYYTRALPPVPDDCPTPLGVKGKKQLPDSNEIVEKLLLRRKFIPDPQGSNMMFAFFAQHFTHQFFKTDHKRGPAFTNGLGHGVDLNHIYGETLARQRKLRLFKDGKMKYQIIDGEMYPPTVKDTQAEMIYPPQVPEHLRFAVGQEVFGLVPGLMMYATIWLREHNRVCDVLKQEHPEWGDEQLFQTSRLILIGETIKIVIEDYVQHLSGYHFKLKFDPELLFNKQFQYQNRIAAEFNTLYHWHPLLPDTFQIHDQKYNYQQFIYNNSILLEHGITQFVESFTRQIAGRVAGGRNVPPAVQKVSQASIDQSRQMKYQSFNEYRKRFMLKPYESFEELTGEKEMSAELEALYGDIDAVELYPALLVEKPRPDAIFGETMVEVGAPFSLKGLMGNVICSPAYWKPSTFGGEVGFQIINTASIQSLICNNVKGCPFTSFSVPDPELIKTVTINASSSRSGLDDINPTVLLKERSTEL

[3] = target: PAS of EeAChE (Electrophorus electricus, UniProt O42275); test: Propidium iodide displacement from the PAS of AChE (fluorescence); type: binding; conditions: EeAChE 7 µM, propidium iodide 8 µM; for % Displacement of propidium iodide 290 µM: compound 290 µM; for % Displacement of propidium iodide 340 µM: compound 340 µM
PAS of EeAChE, sequence (O42275 24-633): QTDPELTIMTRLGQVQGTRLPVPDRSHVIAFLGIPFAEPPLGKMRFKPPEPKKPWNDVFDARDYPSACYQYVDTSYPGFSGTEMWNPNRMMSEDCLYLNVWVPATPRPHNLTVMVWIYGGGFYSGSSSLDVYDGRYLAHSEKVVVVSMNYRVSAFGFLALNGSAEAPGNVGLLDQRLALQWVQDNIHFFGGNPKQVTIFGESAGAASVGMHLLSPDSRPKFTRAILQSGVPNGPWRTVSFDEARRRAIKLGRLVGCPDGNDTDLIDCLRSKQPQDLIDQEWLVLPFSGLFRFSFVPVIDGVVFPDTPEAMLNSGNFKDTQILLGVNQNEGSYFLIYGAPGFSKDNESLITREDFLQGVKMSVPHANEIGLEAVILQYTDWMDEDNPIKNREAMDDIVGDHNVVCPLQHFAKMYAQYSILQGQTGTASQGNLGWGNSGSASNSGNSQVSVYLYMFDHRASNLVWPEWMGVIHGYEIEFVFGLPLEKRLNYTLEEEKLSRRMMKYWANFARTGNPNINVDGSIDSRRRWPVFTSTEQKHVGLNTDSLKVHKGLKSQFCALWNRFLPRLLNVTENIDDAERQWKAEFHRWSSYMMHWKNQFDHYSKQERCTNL
Experimental: The ability of compounds to competitively displace propidium iodide was evaluated by a fluorescence method[43]. […] Donepezil was used as reference compound. The blank contained propidium iodide of the same concentration in 1 mM Tris-HCl buffer pH 8.0. The measurements were carried out in triplicate on a microplate reader Perkin Elmer VictorX2 (Perkin Elmer, Singapur).

[4] = target: T3, ovine COX-1 (Ovis aries, UniProt P05979); test: COX Inhibitor Screening Assay kit, COX-1; type: biochemical
T3 construct: purchased 560131
T3 sequence (P05979 25-600): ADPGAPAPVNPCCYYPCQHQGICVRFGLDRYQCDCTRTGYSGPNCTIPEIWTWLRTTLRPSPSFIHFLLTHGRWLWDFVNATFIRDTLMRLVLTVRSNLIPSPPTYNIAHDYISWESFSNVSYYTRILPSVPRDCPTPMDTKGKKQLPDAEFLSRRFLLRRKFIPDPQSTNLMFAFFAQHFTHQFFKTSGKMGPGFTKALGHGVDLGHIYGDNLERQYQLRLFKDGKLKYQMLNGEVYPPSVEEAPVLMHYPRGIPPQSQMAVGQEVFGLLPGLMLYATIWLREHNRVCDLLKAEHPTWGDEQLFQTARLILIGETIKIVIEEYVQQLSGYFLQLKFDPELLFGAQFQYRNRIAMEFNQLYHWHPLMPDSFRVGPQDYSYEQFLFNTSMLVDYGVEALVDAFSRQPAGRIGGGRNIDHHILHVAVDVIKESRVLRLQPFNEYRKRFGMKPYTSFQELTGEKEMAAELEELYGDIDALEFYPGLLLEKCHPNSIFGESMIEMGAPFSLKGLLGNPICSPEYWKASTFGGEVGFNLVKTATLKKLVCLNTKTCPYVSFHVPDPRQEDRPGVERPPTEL

[5] = tested on: Tc-AChE; test: Kinetic characterisation of AChE inhibition (Lineweaver-Burk); type: biochemical, Torpedo californica
Experimental: The rate of enzyme activity was measured at eight different concentrations of substrate acetylthiocholine iodide (ATC).
Data analysis was carried out with SigmaPlot v10.0.

[6] = target: T1, AChE; conditions: read-out: AChE IC50 (µM)±SE; average of 3 independent runs
[7] = selectivity index, COX-1 IC50 / COX-2 IC50
[8] = read-out: COX-1 IC50 (µM)±SE, average of 3 independent runs

T1 sequence (O42275 24-633): as the sequence (O42275 24-633) above

Compound	IC50 [1] [µM]	SI(COX-1/COX-2) [2]	IC50 [2] [µM]	% Displacement of propidium iodide 290 µM [3] [%]	% Displacement of propidium iodide 340 µM [3] [%]	IC50 [4] [µM]	Mode of AChE inhibition ([5]; Lineweaver-Burk plots, eight concentrations of substrate ATC)	Km ([5]; unchanged at increasing concentrations of the inhibitor, substrate ATC) [µM]	SI(COX-1/COX-2) [2, 7]	IC50 [6] [µM]	IC50 [4, 8] [µM]
Cc1ccc(C(C)C)cc1O [Carvacrol, reference compound]	45 ± 0.031										
CC1=CCC[C@@]2(C)CC[C@@H]3C[C@]12OC3(C)C [Compound 3, α-agarofuran]	26 ± 0.012	66.82	0.17 ± 0.002	12.2 ± 0.2	15.8 ± 0.5	11.36 ± 0.035					
CC1(C)OC23CC1CCC2(C)CCC(O)C3(C)O (stereo not drawn) [Compound 4, 3α,4α-dihydroxydihydro-β-agarofuran]	17 ± 0.016	37.39	0.38 ± 0.007	13.9 ± 0.3	17.6 ± 0.5	14.21 ± 0.035	non-competitive inhibitor	110			
CC(=O)OC1CCC2(C)CCC3CC2(OC3(C)C)C1(C)O (stereo not drawn) [Compound 5, 3α-acetoxy-4α-hydroxydhydro-β-agarofuran]	43 ± 0.015	32.7	0.4 ± 0.0014			13.08 ± 0.02					
CC1(C)OC23CC1CCC2(C)CCC(OC(=O)c1ccco1)C3CO (stereo not drawn) [Compound 6, 3α-furoyloxy-15-hydroxydihydro-β-agarofuran]	32 ± 0.006	97.61	0.13 ± 0.003			12.69 ± 0.035					
CC1(C)OC23CC1CCC2(C)CCC(OC(=O)c1ccccc1)C3CO (stereo not drawn) [Compound 7]			0.21 ± 0.008			11.98 ± 0.042			57.05		
CC(=O)O[C@H]1CC[C@](C)(O)[C@]23OC(C)(C)[C@H](C[C@H](OC(=O)c4ccoc4)[C@]12C)[C@H]3OC(=O)c1ccoc1 [Compound 8, 1α-Acetoxy-6β,9β-difuroyloxy-4β-hydroxydihydro-β-agarofuran]		264.75	0.04 ± 0.007							738 ± 0.007	10.59 ± 0.02
CC(=O)OC[C@@]12[C@@H](OC(C)=O)CC[C@@H](C)[C@]13OC(C)(C)[C@H](C[C@@H]2OC(=O)c1ccccc1)[C@H]3OC(C)=O [Compound 9, 1α,6β,14-triacetoxy-9β-benzyloxydihydro-β-agarofuran]	695 ± 0.001	124.14	0.07 ± 0.004			8.69 ± 0.03					
CC(=O)O[C@@H]1[C@@H]2[C@@H](OC(C)=O)[C@]3(OC2(C)C)[C@H](C)CC[C@H](O)[C@@]3(C)[C@H]1OC(=O)c1ccoc1 [Compound 10, 6β,8α-diacetoxy-9β-furoyloxy-1α-hydroxydihydro-β-agarofuran]		47.37	0.29 ± 0.0003							740 ± 0.045	13.74 ± 0.1
CC(=O)O[C@@H]1[C@H](OC(=O)c2ccccc2)[C@@]2(C)[C@@H](OC(=O)c3ccccc3)C[C@@H]3[C@@H](OC(C)=O)[C@]2(OC3(C)C)[C@@](C)(O)[C@H]1OC(C)=O [Compound 11]	30 ± 0.06	145.33	0.09 ± 0.005	12.1 ± 0.7	13.4 ± 0.2	13.08 ± 0.02					
CC(=O)OC[C@]12[C@@H](OC(=O)c3ccccc3)[C@H](OC(C)=O)[C@@H]3[C@@H](OC(=O)c4ccccc4)[C@]1(OC3(C)C)[C@@](C)(O)[C@H](OC(C)=O)[C@H](OC(C)=O)[C@@H]2OC(C)=O [Compound 12, 1α,2α,3α,8α,14-pentaacetoxy-6β,9β-dibenzyloxy-4β-hydroxidihydro-β-agarofuran]			0.84 ± 0.012			14.2 ± 0.2			16.92		
CC(=O)O[C@@H]1[C@H]2[C@@H](O)[C@H](OC(=O)c3ccccc3)[C@]3(C)[C@@H](O)CC[C@@H](C)[C@@]13OC2(C)C [Compound 13]	500 ± 0.03	103.27	0.11 ± 0.007			11.36 ± 0.035					
